Reference: the NIST ThermoML archive (doi:10.1007/s10765-005-5567-5)

Details: Liquid; for thermal conductivity: Coaxial cylinder method; for viscosity: Capillary tube (Ostwald / Ubbelohde) method

O [water]
Details	thermal conductivity [W/m/K]	viscosity [mPa·s]
298.3 K, 100 kPa	0.607	–
298.3 K, 10000 kPa	0.613	–
298.3 K, 30000 kPa	0.623	–
299.76 K, 100 kPa	–	0.8591
299.76 K, 10000 kPa	–	0.8561
299.76 K, 30000 kPa	–	0.8551
313.1 K, 100 kPa	0.629	–
313.1 K, 10000 kPa	0.634	–
313.1 K, 30000 kPa	0.644	–
315.62 K, 100 kPa	–	0.6245
315.62 K, 10000 kPa	–	0.6234
315.62 K, 30000 kPa	–	0.6292
328.37 K, 100 kPa	–	0.5
328.37 K, 10000 kPa	–	0.503
328.37 K, 30000 kPa	–	0.5071
333.3 K, 100 kPa	0.651	–
333.3 K, 10000 kPa	0.656	–
333.3 K, 30000 kPa	0.666	–
347.95 K, 100 kPa	–	0.3761
347.95 K, 10000 kPa	–	0.3803
347.95 K, 30000 kPa	–	0.3872
352.9 K, 100 kPa	0.667	–
352.9 K, 10000 kPa	0.672	–
352.9 K, 30000 kPa	0.682	–
363.4 K, 100 kPa	0.673	–
363.4 K, 10000 kPa	0.678	–
363.4 K, 30000 kPa	0.689	–
375.85 K, 10000 kPa	–	0.2772
375.85 K, 30000 kPa	–	0.2833
393.1 K, 10000 kPa	0.689	–
393.1 K, 30000 kPa	0.702	–
403.95 K, 10000 kPa	–	0.2131
403.95 K, 30000 kPa	–	0.2181
423.3 K, 10000 kPa	0.691	–
423.3 K, 30000 kPa	0.704	–
431.43 K, 10000 kPa	–	0.1738
431.43 K, 30000 kPa	–	0.1786
448.7 K, 10000 kPa	0.685	–
448.7 K, 30000 kPa	0.699	–
474.3 K, 10000 kPa	0.672	–
474.3 K, 30000 kPa	0.689	–
476.4 K, 10000 kPa	–	0.1326
476.4 K, 30000 kPa	–	0.1375
499.3 K, 10000 kPa	0.652	–
499.3 K, 30000 kPa	0.672	–
502.75 K, 10000 kPa	–	0.1189
502.75 K, 30000 kPa	–	0.1239
523.4 K, 10000 kPa	0.624	–
523.4 K, 30000 kPa	0.649	–
524.75 K, 10000 kPa	–	0.1081
524.75 K, 30000 kPa	–	0.1132
548.4 K, 10000 kPa	0.591	–
548.4 K, 30000 kPa	0.622	–
549.5 K, 10000 kPa	–	0.0961
549.5 K, 30000 kPa	–	0.1011
573.5 K, 10000 kPa	0.547	–
573.5 K, 30000 kPa	0.588	–
574.54 K, 10000 kPa	–	0.0851
574.54 K, 30000 kPa	–	0.0918
